This is an account of results in US9624200B2, “Therapeutic piperazines” (DART NEUROSCIENCE (CAYMAN) LTD., priority 2006, dated 2017).

In experiment [1] the test system is contextual memory (freezing) in C57BL/6 male mice. As to the kind of experiment: Contextual Memory Assay: Fear Conditioning. It is filed as in vivo, mouse. Particulars: for freezing (memory score) 24 hours after training: 2 training trials, vehicle 22.3+3.2%. The source says: Contextual memory is a form of Pavlovian fear conditioning in which a naive mouse is placed into a novel chamber (context) containing distinct visual, olfactory and tactile cues. After several minutes of acclimation, the mouse receives a brief, mild electric shock to its feet. From this negative experience, the mouse will remember for months that that chamber is dangerous. When placed back into the same context at some later time after training, the mouse's natural response to danger is to “freeze,” sitting stone still for many seconds. This is similar to what happens to humans when they experience fear. The percent of time during an observation period that the mouse spends frozen represents a quantitative measure (memory score) of its memory of the context.
Young-adult (10-12 weeks old) C57BL/6 male mice and Sprague Dawley male rats of 250-300 g (Taconic, N.Y.) were used. Mice were group-housed (5 mice) in standard laboratory cages while rats were housed in pairs and maintained on a 12:12 light-dark cycle. The experiments were always conducted during the light phase of the cycle. With the exception of testing times, the mice had ad lib access to food and water. […]
To assess contextual memory, a modified contextual fear conditioning task originally developed for evaluation of memory in CREB knock-out mice was used (Bourtchouladze, et. aL, Cell, 1994, 79, 59-68). […] 24 hours after training, the mouse was placed into the same training chamber and contextual memory was assessed by scoring freezing behavior (‘freezing’ serves as memory score). […]
All experiments were designed and performed in a balanced fashion, meaning that (i) for each experimental condition (e.g. a specific dose-effect) an equal number of experimental and control mice was used; (ii) each experimental condition was replicated 2-3 independent times, and replicate days were added to generate final number of subjects. […] Data were analyzed by Student's unpaired t test using a software package (Statview 5.0.1; SAS Institute, Inc). All values in the text and figures are expressed as mean+SEM. […]

The subject of experiment [2] is PDE4 from human U-937 cells. As to the kind of experiment: PDE4 Inhibition Assay. Particulars: 1 μM cAMP, [3H]-cAMP, read-out: Potency Class (Inhibitory Concentration) in the PDE4 assay. It is filed as biochemical. The procedure, abridged: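 U-937-derived PDE4 (2 μg/ml) was preincubated with compound in Tris-HCl pH 7.5 for 15 min at 25° C. It then reacted 20 min with cAMP plus [^3H]-cAMP. [^3H]-AMP was converted to [^3H]-adenosine by nucleotidase, resin-separated and counted; IC50 came from percent inhibition.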

SMILES strings stand for the structures.

On to `COc1ccc(N2CCN[C@@H](CC3CCCCC3)C2)cc1OC1CCCC1` [Compound 126, (S)-3-Cyclohexylmethyl-1-(3-cyclopentyloxy-4-methoxy-phenyl)-piperazine], for which, in experiment [1] (0.1 mg/kg injected 20 minutes before training), the “effect on contextual memory” value is listed as “no significant effect”. Besides, the “freezing (memory score) 24 hours after training” value in experiment [1] (1 mg/kg injected 20 minutes before training, p<0.05) is given as 32.5+3.2%; in experiment [1] (10 mg injected 20 minutes before training, p<0.005), 38.3%.

Regarding `COCC(=O)N1CCN(c2ccc(OC)c(OC3CCCC3)c2)C[C@@H]1Cc1ccccc1` [Compound 245, (S)-1-(2-benzyl-4-(3-(cyclopentyloxy)-4-methoxyphenyl)piperazin-1-yl)-2-methoxyethanone], the IC50 in experiment [2] lay within 200 to 1000 nM.

In the case of `COc1ccc(N2CCN(C(=O)CN3CC[C@@H](O)C3)[C@@H](Cc3ccccc3)C2)cc1OC1CCCC1` [Compound 320, 1-((S)-2-benzyl-4-(3-(cyclopentyloxy)-4-methoxyphenyl)piperazin-1-yl)-2-((R)-3-hydroxypyrrolidin-1-yl)ethanone], in experiment [2], the IC50 was more than 1000 nM.

For the compound `COc1ccc(N2CCN(C(=O)Cc3nc(C)cs3)[C@@H](Cc3ccccc3)C2)cc1OC1CCCC1` [Compound 308, (S)-1-(2-benzyl-4-(3-(cyclopentyloxy)-4-methoxyphenyl)piperazin-1-yl)-2-(4-methylthiazol-2-yl)ethanone], the IC50 in experiment [2] was less than 200 nM.

Regarding `COc1ccc(N2CCN(C(=O)Cc3cnccn3)[C@@H](Cc3ccccc3)C2)cc1OC1CCCC1` [Compound 387, (S)-1-(2-benzyl-4-(3-(cyclopentyloxy)-4-methoxyphenyl)piperazin-1-yl)-2-(pyrazin-2-yl)ethanone], the IC50 in experiment [2] fell in the range of 200 to 1000 nM.

For the compound `COc1ccc(N2CCN(C(=O)CN)[C@@H](Cc3ccccc3)C2)cc1OC1CCC1` [Compound 349, (S)-2-amino-1-(2-benzyl-4-(3-cyclobutoxy-4-methoxyphenyl)piperazin-1-yl)ethanone], the IC50 in experiment [2] is more than 1000 nM.

With `COc1ccc(N2CCN(C(=O)Cc3cc[nH]c3)[C@@H](Cc3ccccc3)C2)cc1OC(C)C` [Compound 328, (S)-1-(2-benzyl-4-(3-isopropoxy-4-methoxyphenyl)piperazin-1-yl)-2-(1H-pyrrol-3-yl)ethanone], the IC50 in experiment [2] is less than 200 nM.

Turning to `CCc1nn(C2CCCC2)c2cc(N3CCN(C(=O)Cc4nc(C)n[nH]4)[C@@H](Cc4ccccc4)C3)ccc12` [Compound 380, (S)-1-(2-benzyl-4-(1-cyclopentyl-3-ethyl-1H-indazol-6-yl)piperazin-1-yl)-2-(3-methyl-1H-1,2,4-triazol-5-yl)ethanone], in experiment [2], the IC50 is less than 200 nM.

Turning to `CCc1nn(C(C)C)c2cc(N3CCN(CC(N)=O)[C@@H](Cc4ccccc4)C3)ccc12` [Compound 383, (S)-2-(2-benzyl-4-(3-ethyl-1-isopropyl-1H-indazol-6-yl)piperazin-1-yl)acetamide], the IC50 in experiment [2] is more than 1000 nM.

For `CCc1nn(C(C)C)c2cc(N3CCN(C(=O)CC(N)=O)[C@@H](Cc4ccccc4)C3)ccc12` [Compound 382, (S)-3-(2-benzyl-4-(3-ethyl-1-isopropyl-1H-indazol-6-yl)piperazin-1-yl)-3-oxopropanamide], the IC50 in experiment [2] was more than 1000 nM.

As for `COc1ccc(N2CCN(C(=O)c3cc[nH]n3)[C@@H](Cc3ccccc3)C2)cc1OC1CCCC1` [Compound 304, (S)-(2-benzyl-4-(3-(cyclopentyloxy)-4-methoxyphenyl)piperazin-1-yl)(1H-pyrazol-3-yl)methanone], the IC50 in experiment [2] was more than 1000 nM.

With `COc1ccc(N2CCN(C(=O)Cc3cn(C)cn3)[C@@H](Cc3ccccc3)C2)cc1OC1CCCC1` [Compound 317, (S)-1-(2-benzyl-4-(3-(cyclopentyloxy)-4-methoxyphenyl)piperazin-1-yl)-2-(1-methyl-1H-imidazol-4-yl)ethanone], in experiment [2], the IC50 is less than 200 nM.

For the compound `COc1ccc(N2CCN(Cc3cccc(O)c3)[C@@H](Cc3ccccc3)C2)cc1OC1CCCC1` [Compound 361], the IC50 in experiment [2] was more than 1000 nM.

As to `COc1ccc(N2CCN(C(=O)Cc3cnc[nH]3)[C@@H](Cc3ccccc3)C2)cc1OC1CCCC1` [Compound 240, (S)-1-(2-benzyl-4-(3-(cyclopentyloxy)-4-methoxyphenyl)piperazin-1-yl)-2-(1H-imidazol-5-yl)ethanone], the IC50 in experiment [2] is less than 200 nM.

For `COc1ccc(N2CCN(CC(=O)O)[C@@H](Cc3ccccc3)C2)cc1OC(C)C` [Compound 266], the IC50 in experiment [2] was 200 to 1000 nM.

Turning to `COc1ccc(N2CCN(C(=O)Cc3cn(C)cn3)[C@@H](CC(C)C)C2)cc1OC1CCC1` [Compound 369, (S)-1-(4-(3-cyclobutoxy-4-methoxyphenyl)-2-isobutylpiperazin-1-yl)-2-(1-methyl-1H-imidazol-4-yl)ethanone], the IC50 in experiment [2] is 200 to 1000 nM.

As for `COc1ccc(N2CCN(C(=O)c3c[nH]c(=O)[nH]3)[C@@H](Cc3ccccc3)C2)cc1OC1CCCC1` [Compound 288, (S)-4-(2-benzyl-4-(3-(cyclopentyloxy)-4-methoxyphenyl)piperazine-1-carbonyl)-1H-imidazol-2(3H)-one], the IC50 in experiment [2] lay within 200 to 1000 nM.

On to `COc1ccc(N2CCN(C(=O)Cc3nn[nH]n3)[C@@H](Cc3ccccc3)C2)cc1OC1CCCC1` [Compound 294, (S)-1-(2-benzyl-4-(3-(cyclopentyloxy)-4-methoxyphenyl)piperazin-1-yl)-2-(2H-tetrazol-5-yl)ethanone], for which the IC50 in experiment [2] was less than 200 nM.

In the case of `CNCC(=O)N1CCN(c2ccc(OC)c(OC3CCC3)c2)C[C@@H]1Cc1ccccc1` [Compound 350, (S)-1-(2-benzyl-4-(3-cyclobutoxy-4-methoxyphenyl)piperazin-1-yl)-2-(methylamino)ethanone], the IC50 in experiment [2] is more than 1000 nM.

With `COc1ccc(N2CCN(C(=O)C3(O)CC3)[C@@H](Cc3ccccc3)C2)cc1OC1CCCC1` [Compound 283, (S)-(2-benzyl-4-(3-(cyclopentyloxy)-4-methoxyphenyl)piperazin-1-yl)(1-hydroxycyclopropyl)methanone], in experiment [2], the IC50 was 200 to 1000 nM.

In the case of `COc1ccc(N2CCN(C(=O)C3(C(=O)O)CCC3)[C@@H](Cc3ccccc3)C2)cc1OC1CCC1` [Compound 315, (S)-1-(2-benzyl-4-(3-cyclobutoxy-4-methoxyphenyl)piperazine-1-carbonyl)cyclobutanecarboxylic acid], the IC50 in experiment [2] is less than 200 nM.

In the case of `NC(=O)CN1CCN(c2ccc(OC(F)F)c(OC3CCC3)c2)C[C@@H]1Cc1ccccc1` [Compound 273, (S)-2-(2-benzyl-4-(3-cyclobutoxy-4-(difluoromethoxy)phenyl)piperazin-1-yl)acetamide], in experiment [2], the IC50 was less than 200 nM.

For the compound `COc1ccc(N2CCN(C(=O)Cc3n[nH]c(C)n3)[C@@H](CC(C)C)C2)cc1OC(C)C` [Compound 377, (S)-1-(2-isobutyl-4-(3-isopropoxy-4-methoxyphenyl)piperazin-1-yl)-2-(5-methyl-1H-1,2,4-triazol-3-yl)ethanone], in experiment [2], the IC50 lay within 200 to 1000 nM.

For `COc1ccc(N2CCN(CCc3cnc[nH]3)[C@@H](Cc3ccccc3)C2)cc1OC1CCCC1` [Compound 242, (S)-1-(2-(1H-imidazol-5-yl)ethyl)-2-benzyl-4-(3-(cyclopentyloxy)-4-methoxyphenyl)piperazine], the IC50 in experiment [2] is more than 1000 nM.

On to `CC(C)C[C@H]1CN(c2ccc(OC(F)F)c(OCC3CC3)c2)CCN1C(=O)Cc1c[nH]cn1` [Compound 365, (S)-1-(4-(3-(cyclopropylmethoxy)-4-(difluoromethoxy)phenyl)-2-isobutylpiperazin-1-yl)-2-(1H-imidazol-4-yl)ethanone], for which the IC50 in experiment [2] lay in the range of 200 to 1000 nM.
